Patent US8906825B2, “Herbicidal compositions comprising 4-amino-3-chloro-5-fluoro-6-(4-chloro-2-fluoro-3-methoxyphenyl) pyridine-2-carboxylic acid or a derivative thereof and triazolopyrimidine sulfonamides” (Dow AgroSciences LLC, priority 2012, dated 2014)

Key:
Format in all cases: in vivo
[1] = tested on: LEFCH (Leptochloa chinensis (L.) Nees, Chinese sprangletop); assay: Postemergence foliar-applied herbicidal mixtures, direct seeded rice, greenhouse (Example I)
[2] = tested on: IPOHE (Ipomoea hederacea Jacq., ivyleaf morningglory); assay: as above
[3] = tested on: LEFCH (Leptochloa chinensis (L.) Nees, Chinese sprangletop); assay: In-water applied herbicidal mixtures, transplanted paddy rice, greenhouse (Example II)
Description: Weed seeds or nutlets of the desired test plant species were planted in puddled soil (mud) prepared by mixing a shredded, non-sterilized mineral soil (50.5 percent silt, 25.5 percent clay, and 24 percent sand, with a pH of about 7.6 and an organic matter content of about 2.9 percent) and water at a 1:1 volumetric ratio. The prepared mud was dispensed in 365 mL aliquots into 16-ounce (oz.) non-perforated plastic pots with a surface area of 86.59 square centimeters (cm^2) leaving a headspace of 3 centimeters in each pot. Mud was allowed to dry overnight prior to planting or transplanting. Rice seeds were planted in Sun Gro MetroMix® 306 planting mixture, which typically has a pH of 6.0 to 6.8 and an organic matter content of about 30 percent, in plastic plug trays. Seedlings at the second or third leaf stage of growth were transplanted into 840 mL of mud contained in 32-oz. non-perforated plastic pots with a surface area of 86.59 cm^2 4 days prior to herbicide application. The paddy was created by filling the headspace of the pots with 2.5 to 3 cm of water. When required to ensure good germination and healthy plants, a fungicide treatment and/or other chemical or physical treatment was applied. The plants were grown for 4-22 days in a greenhouse with an approximate 14 h photoperiod which was maintained at about 29′C during the day and about 26° C. during the night. Nutrients were added as Osmocote® (19:6:12, N:P:K+minor nutrients) at 2 g per 16-oz. pot and 4 g per 32-oz. pot. Water was added on a regular basis to maintain the paddy flood, and supplemental lighting was provided with overhead metal halide 1000-Watt lamps as necessary. The plants were employed for testing when they reached the first through fourth true leaf stage.
Treatments consisted of the acid or esters of 4-amino-3-chloro-5-fluoro-6-(4-chloro-2-fluoro-3-methoxy-phenyl)pyridine-2-carboxylic acid (compound A) each formulated as an SC and various herbicidal components alone and in combination. Forms of compound A were applied on an acid equivalent basis.
Other herbicidal components were applied on an active ingredient basis and included acetolactate synthase (ALS)-inhibiting herbicides (sulfonamide chemical class) penoxsulam formulated as Grasp® SC (GF-443), diclosulam formulated as Strongarm®, and cloransulam-methyl formulated as FirstRate®.
Treatment requirements for each compound or herbicidal component were calculated based upon the rates being tested, the concentration of active ingredient or acid equivalent in the formulation, an application volume of 2 mL per component per pot, and an application area of 86.59 cm^2 per pot.
For formulated compounds, a measured amount was placed in an individual 100 or 200 mL glass vial and was dissolved in a volume of 1.25% (v/v) Agri-Dex® crop oil concentrate to obtain each application solution.
Applications were made by injecting with a pipetter appropriate amounts of the application solutions, individually and sequentially, into the aqueous layer of the paddy. Control plants were treated in the same manner with the solvent blank. Applications were made so that all treated plant material received the same concentrations of acetone and crop oil concentrate.
The treated plants and control plants were placed in a greenhouse as described above and water was added as needed to maintain a paddy flood. After approximately 3 weeks the condition of the test plants as compared with that of the untreated plants was determined visually and scored on a scale of 0 to 100 percent where 0 corresponds to no injury or growth inhibition and 100 corresponds to complete kill.
Colby's equation was used to determine the herbicidal effects expected from the mixtures (Colby, S. R. 1967. Calculation of the synergistic and antagonistic response of herbicide combinations. Weeds 15:20-22.).
The following equation was used to calculate the expected activity of mixtures containing two active ingredients, A and B: Expected=A+B−(A×B/100)

[4] = Compound A Benzyl Ester 4.38 gae/ha
[5] = Compound A Benzyl Ester 8.75 gae/ha
[6] = Compound A Benzyl Ester 17.5 gae/ha

Q: Which “Visual Weed Control (%) - 20 DAA LEFCH Obs” value [1, 4] does the source give for `COc1c(Cl)ccc(-c2nc(C(=O)OCc3ccccc3)c(Cl)c(N)c2F)c1F` [Compound A Benzyl Ester, benzyl ester of 4-amino-3-chloro-5-fluoro-6-(4-chloro-2-fluoro-3-methoxy-phenyl)pyridine-2-carboxylic acid] here?
A: The value was 10%.

Q: What about the “Visual Weed Control (%) - 22 DAA LEFCH Obs” value ([1]; Compound A Benzyl Ester 8 gae/ha) of the same compound?
A: The value was 10%.

Q: And the “Visual Weed Control (%) - 20 DAA LEFCH Obs” value [1, 5]?
A: Its value is 20%.

Q: And the “Visual Weed Control (%) - 22 DAA LEFCH Obs” value ([1]; Compound A Benzyl Ester 16 gae/ha)?
A: The value was 25%.

Q: What about the “Visual Weed Control (%) - 20 DAA LEFCH Obs” value [1, 6] of the same compound?
A: The value was 60%.

Q: And the “Visual Weed Control (%) - 22 DAA LEFCH Obs” value ([1]; Compound A Benzyl Ester 32 gae/ha)?
A: Its value is 55%.

Q: What about the “Visual Weed Control (%) - 27 DAA IPOHE Obs” value [2, 4] of the same compound?
A: The value was 10%.

Q: And the “Visual Weed Control (%) - 27 DAA IPOHE Obs” value [2, 5]?
A: Its value is 10%.

Q: What about the “Visual Weed Control (%) - 27 DAA IPOHE Obs” value [2, 6] of the same compound?
A: Its value is 10%.

Q: What about the “Visual Weed Control (%) - 25 DAA LEFCH Obs” value [3, 5] of the same compound?
A: Its value is 50%.

Q: What about the “Visual Weed Control (%) - 25 DAA LEFCH Obs” value [3, 6] of the same compound?
A: The value was 90%.

Q: With `COc1cnc(OC)n2nc(NS(=O)(=O)c3c(OCC(F)F)cccc3C(F)(F)F)nc12` [Penoxsulam, 2-(2,2-difluoroethoxy)-N-(5,8-dimethoxy[1,2,4]triazolo[1,5-c]pyrimidin-2-yl)-6-(trifluoromethyl)benzenesulfonamide, reference compound] as the compound, how does the “Visual Weed Control (%) - 19 DAA LEFCH Obs” value ([1]; Penoxsulam 40 gai/ha) read?
A: The value was 0%.

Q: What about the “Visual Weed Control (%) - 27 DAA IPOHE Obs” value ([2]; Penoxsulam 4.38 gai/ha, Table 3) of the same compound?
A: Its value is 10%.

Q: What about the “Visual Weed Control (%) - 27 DAA IPOHE Obs” value ([2]; Penoxsulam 8.75 gai/ha, Table 1) of the same compound?
A: The value was 15%.

Q: What about the “Visual Weed Control (%) - 27 DAA IPOHE Obs” value ([2]; Penoxsulam 8.75 gai/ha, Table 2) of the same compound?
A: The value was 15%.

Q: What about the “Visual Weed Control (%) - 27 DAA IPOHE Obs” value ([2]; Penoxsulam 8.75 gai/ha, Table 3) of the same compound?
A: The value was 15%.

Q: What about the “Visual Weed Control (%) - 27 DAA IPOHE Obs” value ([2]; Penoxsulam 17.5 gai/ha, Table 1) of the same compound?
A: The value was 20%.

Q: What about the “Visual Weed Control (%) - 27 DAA IPOHE Obs” value ([2]; Penoxsulam 17.5 gai/ha, Table 2) of the same compound?
A: The value was 20%.

Q: And the “Visual Weed Control (%) - 27 DAA IPOHE Obs” value ([2]; Penoxsulam 17.5 gai/ha, Table 3)?
A: The value was 20%.

Q: And the “Visual Weed Control (%) - 25 DAA LEFCH Obs” value ([3]; Penoxsulam 17.5 gai/ha, Table 11)?
A: The value was 0%.

Q: What about the “Visual Weed Control (%) - 25 DAA LEFCH Obs” value ([3]; Penoxsulam 35 gai/ha, Table 10) of the same compound?
A: The value was 40%.

Q: What about the “Visual Weed Control (%) - 25 DAA LEFCH Obs” value ([3]; Penoxsulam 35 gai/ha, Table 11) of the same compound?
A: The value was 40%.
